Test results from patent publication US20250382583A1, “ENHANCED METHODS FOR INDUCING AND MAINTAINING NAIVE HUMAN PLURIPOTENT STEM CELLS” (Washington University, priority 2021, published 2025).

Experiments:
[1] = system: WIBR3 OCT4-ΔPE-GFP+-naïve hESCs; assay: Extended maintenance assay, OCT4-ΔPE-GFP reporter activity (imaging, qRT-PCR); format: cell-based, human; conditions: in the presence of ROCK inhibitor (Y) alone; 2.5 and 5 μM; two passages
Method: (§1) Defining alternative naïve maintenance media: To define the activity of selected hit compounds during extended naïve culture, naïve hESCs derived from the primed state and maintained in 5i/L/A were dissociated with Accutase (Thermo Fischer Scientific, A1110501) and 1.5×10^5 single cells were seeded in 5i/L/A media on MEF-coated plates. After 24 hours, 5i/L/A media were switched to experimental maintenance conditions to validate hits from the screen. After 4-6 days the cells were split in a 1:2 or 1:3 ratio and further maintained for 4-6 days before analysis by FACS, qRT-PCR, AP staining, and/or RNA-seq. 5i/L/A media in which the MEK inhibitor PD0325901 was replaced with 5 μM AZ628 are represented as alternative 5i/L/A (a5i/L/A). FXGY, AXGY, AXGYU, PXGY, and GXGY media were prepared in serum-free N2B27 media supplemented with 1 μM PD166866, 5 μM AZ628, 5 μM AZ628 and 1 μM UNC0638, 1 μM PD0325901, and 5 μM GDC-0994, respectively, together with 2 μM XAV939, 2 μM Gö6983, and 10 μM Y-27632. During these assays cells were fed with fresh media every second day and cultured in 5% O2, 5% CO2 at 37° C. Detailed information on conditions used for defining alternative naïve maintenance media can be found in Tables 1-6.
(§2) Quantitative reverse transcriptase PCR (qRT-PCR): Total RNA was isolated using the E.Z.N.A. total RNA kit I and cDNA synthesis was performed from total RNA using the high-capacity cDNA reverse transcription kit (Applied Biosystems, 4368814). qRT-PCR was performed using PowerUp SYBR Green Master Mix (Applied Biosystems, A25743) on the StepOnePlus Real-Time PCR System (Applied Biosystems). Gene expression was normalized to RPLP0 and analyzed using the ΔCt method. Error bars represent the standard deviation (SD) of the mean of technical replicates.
For this purpose, WIBR3 OCT4-ΔPE-GFP+-naïve hESCs that were generated in the absence of reprogramming transgenes were used using the 5i/L/A cocktail. […] Compounds were tested at two different concentrations (2.5 and 5 μM), and cells were maintained for two passages (FIG. 2A).

H9-naïve hESCs [2] = assay: Extended maintenance assay, flow cytometry for naïve-specific CD75 and SUSD2; format: cell-based, human; conditions: serum-free media supplemented with XGY, 2.5 μM compound
Method: as §1
Flow cytometry: Primed hESCs were single-cell dissociated using TrypLE Express, while Accutase was used for naïve hESCs. Cells were resuspended in fibroblast medium and centrifuged. Cell pellets were washed in 5 mL ice-cold PBS. The cells were then resuspended in […] fresh ice-cold FACS buffer (PBS supplemented with 5% FBS), and incubated with antibodies for 30 minutes on ice in the dark. The following antibodies were used: anti-SUSD2-PE (1:100), anti-CD75-eFluor 660 (1:100), anti-CD90-PE (1:100), anti-ITGA6-FITC (1:100) and EGFR-APC (1:25). Post-incubation the cells were washed once with 1 mL ice-cold PBS, resuspended in fresh 500 μl FACS buffer, and passed through a […] cell strainer into round bottom FACS tubes (Corning, #352235). Flow cytometry was performed using a BD LSRFortessa X-20 and the data were analyzed using the FlowJo software.

H9-naïve hESCs [3] = assay: qRT-PCR for naïve-specific transcripts (KLF17, DNMT3L) during naïve maintenance; format: cell-based, human; conditions: in XAV/Gö/Y; KLF17 and DNMT3L
Method: as §1, §2

p-ERK1/2 = conditions: stated as known; cited from earlier work
H9 primed hESCs = assay: Primed-to-naïve resetting, flow cytometry for CD75 and SUSD2; format: cell-based, human
Method: […]: For primed-to-naïve resetting experiments, primed hESCs were dissociated into single cells using TrypLE Express (GIBCO, 12604), washed in fibroblast medium [DMEM (Millipore Sigma, #SLM-021-B) supplemented with 10% FBS (HyClone, SH30396.03, 1×GlutaMAX (GIBCO, 35050), and 1% penicillin-streptomycin (GIBCO, 15140)] and 2×10^5 single primed hESCs were seeded on mitomycin C-inactivated mouse embryonic fibroblast (MEF) feeder cells coated 6 well plates in 3-4 mL mTeSR1 supplemented with 10 μM Y-27632. Two days later, medium was switched to either 5i/L/A or experimental induction media and maintained for 10-12 days. Cells at this stage were considered at passage zero. Cells were then split in a 1:2 or 1:3 ratio every 4-6 days as single cells using Accutase (Thermo Fischer Scientific, A1110501). PXGGY media were prepared in serum-free N2B27 media supplemented with 1 μM PD0325901, 2 μM XAV939, 2 μM Gö6938, 2.5 μM GDC-0994, and 10 μM Y-27632. […]
Flow cytometry: Primed hESCs were single-cell dissociated using TrypLE Express, while Accutase was used for naïve hESCs. […] Flow cytometry was performed using a BD LSRFortessa X-20 and the data were analyzed using the FlowJo software.

[4] = system: WIBR3 OCT4-ΔPE-GFP+naïve hESCs; assay: High-throughput chemical screening in absence of 2i, OCT4-ΔPE-GFP reporter, high-content imaging; format: cell-based, human; conditions: N2B27/Y
Method: High-throughput chemical screening: For high-throughput screening, WIBR3 OCT4-ΔPE-GFP+naïve hESCs generated with inducible KLF2 and NANOG transgenes were used, as described previously. These cells were maintained in 1 μM PD0325901, 1 µM CHIR99021, and 2 μg/ml DOX (Sigma) (2i/DOX). For compound screening in presence of 2i/Y, 3,000 OCT4-ΔPE-GFP+naïve hESCs were seeded per well in vitronectin-coated 384 well plates in serum-free N2B27 media supplemented with 1 μM PD0325901, 1 μM CHIR99021, and 10 μM Y-27632. The next day individual compounds from the Novartis Mechanism of Action (MoA) library were applied at two concentrations (2.5 μM and 5 μM) in duplicate using an Echo 550 Acoustic Liquid Handler (Labcyte), and compounds were refreshed on day 4. Images were analyzed on day 5 post-DOX withdrawal using a Yokogawa Cell Voyager 7000 High-Content Imaging System in confocal mode using a 10× dry (NA=0.45) objective lens using four fields per well that provided for full well coverage. While the screen was performed at two concentrations (2.5 μM and 5 μM), the lower concentration yielded few additional hits. Hit compounds were validated in 384 well plates across an 8-point concentration range in duplicates. […] Images were acquired using the Yokogawa Cell Voyager 7000 on day 7 and analyzed as described above. […]

H9 hESCs = assay: Primed-to-naïve reprogramming, colony morphology and colony numbers (imaging, AP staining); format: cell-based, human; conditions: transient application (24 hours at passaging) of 10 μM in PXGGY/A
Method: […]: For primed-to-naïve resetting experiments, primed hESCs were dissociated into single cells using TrypLE Express (GIBCO, 12604), washed in fibroblast medium [DMEM (Millipore Sigma, #SLM-021-B) supplemented with 10% FBS (HyClone, SH30396.03, 1×GlutaMAX (GIBCO, 35050), and 1% penicillin-streptomycin (GIBCO, 15140)] and 2×10^5 single primed hESCs were seeded on mitomycin C-inactivated mouse embryonic fibroblast (MEF) feeder cells coated 6 well plates in 3-4 mL mTeSR1 supplemented with 10 μM Y-27632. Two days later, medium was switched to either 5i/L/A or experimental induction media and maintained for 10-12 days. Cells at this stage were considered at passage zero. Cells were then split in a 1:2 or 1:3 ratio every 4-6 days as single cells using Accutase (Thermo Fischer Scientific, A1110501). PXGGY media were prepared in serum-free N2B27 media supplemented with 1 μM PD0325901, 2 μM XAV939, 2 μM Gö6938, 2.5 μM GDC-0994, and 10 μM Y-27632. PXGGY/A media were prepared in PXGGY supplemented with 10 ng/ml Activin A. During these assays cells were fed with fresh media every second day and cultured in 5% O2, 5% CO2 at 37° C. Detailed information on the conditions used for defining alternative naïve induction media can be found in Tables 1-6.
Alkaline phosphatase (AP) staining: AP staining was performed following the manufacturer's instructions using the Leukocyte Alkaline Phosphatase Kit (Sigma, 86R, 1KT). For AP staining cells were seeded at equal density in 6-well plates and passaged in the same ratio for all conditions. Post-staining cells were allowed to dry overnight in the dark and scanned using HP Color Laser Jet Managed printer/scanner (MFP E67650).
Imaging: The imaging of H9 and WIBR3 hESCs was performed in live conditions within culture media. For WIBR3 MECP2-GFP/tdTomato hESCs the medium was aspirated, cell were washed twice with PBS, and imaged in 1 mL of PBS. All images were captured at 10× magnification on a Leica DMi8 microscope.
Example 1 establishes the PXGGY/A cocktail enables efficient primed-to-naïve reprogramming, homogenous induction of naïve-specific cell surface markers CD75 and SUSD2, and homogenous X-chromosome reactivation. […] To address this, the impact of ROCK inhibitor Y-27632 titration was first assessed when used continuously or transiently for only 24 hours at the time of passaging during primed-to-naïve reprogramming (FIG. 9A and FIG. 9B). […] The PXGGY/A composition from hereon will be denoted as PXGGY/A to specify transient use of ROCKi.
However, the morphology of naïve hESCs reprogrammed using this condition still appeared flat compared to the characteristic dome-shaped colony morphology associated with naïve pluripotency. […]

Row | Structure (SMILES) | activity in maintaining OCT4-ΔPE-GFP reporter activity after passaging [1] | sustaining CD75/SUSD2-positive cells over multiple passages (H9-naïve hESCs [2]) | concentration effective to maintain expression of naïve-specific transcripts (titration) (H9-naïve hESCs [3]) | also measured
1 | Cn1nccc1Nc1nccc(-c2ccn([C@H](CO)c3ccc(Cl)c(F)c3)c(=O)c2)n1 [GDC-0994, (S)-1-(1-(4-chloro-3-fluorophenyl)-2-hydroxyethyl)-4-(2-((1-methyl-1H-pyrazol-5-yl)amino)pyrimidin-4-yl)pyridin-2(1H)-one] | showed activity | robustly sustained | 5 µM | effect on phosphorylation of cellular ERK1/2 (p-ERK1/2): not to alter
2 | COc1cc(OC)cc(-c2cc3cnc(N)nc3nc2NC(=O)NC(C)(C)C)c1 [PD166866] | showed activity | robustly sustained | 1 µM | induction of CD75/SUSD2 double-positive cells in primed hESCs (H9 primed hESCs; in the presence of XGY and activin A, end of P1): heterogeneous induction
3 | Oc1nc(-c2ccc(C(F)(F)F)cc2)nc2c1CSCC2 [XAV939] |  |  |  | colony size and OCT4-ΔPE-GFP signal compared to inhibition of MEK1 [4]: larger colonies but a slightly dimmer OCT4-ΔPE-GFP signal; increase in GFP activity (OCT4-ΔPE-GFP) ([4]; validation assays, absence of 2i): particularly strong effect
4 | C[C@@H](N)[C@H]1CC[C@H](C(=O)Nc2ccncc2)CC1 [Y-27632] |  |  |  | CD75+/SUSD2+ cell proportion (H9 primed hESCs; transient application of 10 μM in PXGGY/A, P1): without any significant reduction; morphology of reprogrammed naïve hESCs (H9 hESCs): improves the morphology
